The subject of assay [1] is A549 cells expressing EGFP. In words: Cas9-RNP delivery against EGFP (gene editing, plate reader), A549. Particulars: A549 cells. In kind it is cell-based. The procedure:
To generate an EGFP expressing HeLa cell line, HeLa cells were transfected with EGFP pDNA (pEGFP-C1, Clontech) and stable transfectants were selected with 400 μg/mL of G-418 (Millipore). Green clones were selected by epifluorescence microscopy and tested for EGFP expression stability through several passages. […] All other EGFP-expressing cell lines were obtained in a similar way from parent non-EGFP-expressing cell lines.
Cells expressing EGFP were seeded in a 96 well plate the day before the experiment at a concentration of 50,000 cell/mL (100 μL/w) in DMEM+10% FBS+1% Gln-Abt. For robotic library screening, the delivery of Cas9-RNP against EGFP (RNP designed to knock-out the gene encoding for the enhanced green fluorescent protein (EGFP)) was performed. For RNP assembly, 9.2 μL of crRNA and 9.2 μL of tracrRNA were mixed in 211.6 μL of Nuclease-Free Duplex Buffer (IDT), incubated for 5 min at 95° C. and slowly cooled at rt (see I. Lostalé-Seijo, et al. Peptide/Cas9 nanostructures for ribonucleoprotein cell membrane transport and gene edition, Chem. Sci., 2017). Cas9 protein was dissolved in DMEM at a final concentration of 4 μM and equal volumes of the RNA complex and Cas9 were mixed and incubated for 5 min at rt. 75 μL of the corresponding amphiphile concentrations were added to 5 μL of RNP at 2 μM. The mixture was shaken for 30 min at room temperature before the addition to the cells. The cell medium was aspirated, and cells were washed twice with PBS. Cells were covered with 30 μL of DMEM and 20 μL of the RNP/amphiphile complexes were added to the cells (final peptide concentrations=2.5, 5 and 10 μM; final Cas9-RNP concentration=50 nM) and incubated for 4 h. After the incubation, the medium was replaced by 100 μL of fresh DMEM supplemented with 10% FBS. The total EGFP fluorescence was quantified after 72 h in a plate reader (FIG. 2, Table 1 (right) and Table 6). All experiments were done in triplicate.
Tables 1-7: RLuc (pDNA) or EGFP (mRNA) expression levels were normalized to Lipofectamine reagents (value=1) and expressed as fold-times signal increase. In the case of siRNA, the siRNA treated cells fluorescence was compared with siMOCK control fluorescence, while Cas9-RNP mediated knockout was measured against the fluorescence of untreated cells. In both siRNA and Cas9-RNP, values are expressed as % fluorescence reduction. Amphiphile concentration was 5 μM in all cases. All experiments were performed in triplicate.
Tables 26-31 show the mean (triplicates) percentage of gene editing, accounted by GFP fluorescence intensity decrease (% of reduction), measured after the transfection of Cas9-RNP by different amphiphiles at different concentrations in a variety of cell lines. Background values, accounted by untreated control cells, were subtracted for processing.

The subject of the next assay is HepG2 cells. Briefly: RLuc pDNA delivery, robotic library screening, HepG2. Format: cell-based. In short, it runs like this: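 After the 4 h exposure the complexes were replaced with fresh DMEM plus 10% FBS. At 72 hours cells were washed with HBSS, kept 30 minutes at 37° C. for basal readings, then given coelenterazine h (5 μM final) for 10 minutes before total luminescence was read. Triplicate means had untransfected background subtracted and were also expressed relative to Lipofectamine® 2000 set at 1.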

*: point of attachment. NHNH2 = NN*

The record followed here is US20250304623A1, “PEPTIDES FOR INTRACELLULAR DELIVERY” (UNIVERSIDADE DE SANTIAGO DE COMPOSTELA, priority 2022, published 2025).

For “Ac-RRHK*RLK*RRLK*RL-NH2 (Ac-RRHK(NHNH2)RLK(NHNH2)RRLK(NHNH2)RL-NH2; not fully specified; printed as Ac-RRHK*RLK*RRLK*RL-NH2; also: K*4,K*7,K*11: native or modified lysine (ε-amide to a linker)) [13(Leu-His)]”, the “percentage of gene editing, GFP fluorescence intensity decrease (% of reduction)” value amounted to 13% in assay [1] (Myristoleyl, 5 μM); 20% in assay [1] (Myristoleyl, 10 μM); 45% in assay [1] (Myristoleyl, 15 μM); 21% in assay [1] (Palmitoleyl, 15 μM); 13% in assay [1] (Petroselinyl, 5 μM); 16% in assay [1] (Petroselinyl, 10 μM). Besides, in assay [1] (Petroselinyl, 15 μM), the “percentage of gene editing, GFP fluorescence intensity decrease (% of reduction)” value worked out at 42%. Moreover, the “mean luminescent intensity (RLuc pDNA)” value is 12080 RLU with HepG2 cells (Dodecanal, 10 μM); 73505 RLU with HepG2 cells (Dodecanal, 15 μM); 61828 RLU in the assay on HepG2 cells (Myristoleyl, 10 μM); 35356 RLU in the assay on HepG2 cells (Myristoleyl, 15 μM); 116466 RLU in the assay with HepG2 cells (Oleyl, 5 μM); 71476 RLU in the assay on HepG2 cells (Palmitoleyl, 10 μM).

On to “Ac-RK*LRRLLRK*-NH2 (Ac-RK(NHNH2)LRRLLRK(NHNH2)-NH2; not fully specified; printed as Ac-RK*LRRLLRK*-NH2; also: K*2,K*9: native or modified lysine (ε-amide to a linker)) [Peptide 9.2]”, for which the “percentage of gene editing, GFP fluorescence intensity decrease (% of reduction)” value in assay [1] (Dodecanal, 10 μM) is recorded as −22%; in assay [1] (Dodecanal, 15 μM), 4%; in assay [1] (Myristoleyl, 5 μM) it was 9%; in assay [1] (Myristoleyl, 10 μM), 7%; in assay [1] (Myristoleyl, 15 μM), 14%. The “mean luminescent intensity (RLuc pDNA)” value in the assay with HepG2 cells (Dodecanal, 10 μM) is 5678 RLU; with HepG2 cells (Dodecanal, 15 μM), 2289 RLU; in the assay on HepG2 cells (Myristoleyl, 5 μM), 26828 RLU; with HepG2 cells (Myristoleyl, 10 μM), 68860 RLU; in the assay on HepG2 cells (Myristoleyl, 15 μM), 46601 RLU.

For the substance “Ac-RK*LRRK*LRK*-NH2 (Ac-RK(NHNH2)LRRK(NHNH2)LRK(NHNH2)-NH2; not fully specified; printed as Ac-RK*LRRK*LRK*-NH2; also: K*2,K*6,K*9: native or modified lysine (ε-amide to a linker)) [Peptide 9.3]”, the “percentage of gene editing, GFP fluorescence intensity decrease (% of reduction)” value in assay [1] (Dodecanal, 10 μM) is recorded as 0%; in assay [1] (Dodecanal, 15 μM) it was 25%; in assay [1] (Myristoleyl, 5 μM) it was 13%; in assay [1] (Myristoleyl, 10 μM), 17%; in assay [1] (Myristoleyl, 15 μM) it was 50%; in assay [1] (Oleyl, 15 μM) it was 18%. Besides, the “percentage of gene editing, GFP fluorescence intensity decrease (% of reduction)” value in assay [1] (Palmitoleyl, 15 μM) stood at 39%; in assay [1] (Petroselinyl, 10 μM), 13%; in assay [1] (Petroselinyl, 15 μM) it was 47%. For the same substance, the “mean luminescent intensity (RLuc pDNA)” value with HepG2 cells (Dodecanal, 10 μM) came out at 25099 RLU; with HepG2 cells (Dodecanal, 15 μM) it was 21420 RLU; with HepG2 cells (Myristoleyl, 5 μM), 57891 RLU; in the assay on HepG2 cells (Myristoleyl, 10 μM), 244850 RLU; in the assay on HepG2 cells (Myristoleyl, 15 μM), 286208 RLU; with HepG2 cells (Petroselinyl, 15 μM), 50057 RLU.
